From publication PMC8861431, “Tissue Pharmacokinetic Properties and Bystander Potential of Hypoxia-Activated Prodrug CP-506 by Agent-Based Modelling” (Frontiers in Pharmacology, 2022)
Where two headings read alike, the source gives them in different places.

How the values were obtained:
[1] = test system: spheroid co-cultures of POR-R activator and PORko-G target cells; assay: Spheroid growth delay assay; type: cell-based; settings: Homo sapiens, 4 h, 4 h exposure, anoxic, read-out: IC50 for inhibition of spheroid growth
Procedure: Spheroid cultures were established by seeding 3 x 10^3 cells with 100 µl medium into ultra-low attachment, round bottom 96-well plates (Corning Inc, Corning, NY). Plates were briefly centrifuged (200 g, 5 min) to facilitate cell aggregation and grown in a standard incubator (37°C, 21% O2, 5% CO2) for 4 days before experiments. The culture medium was then aspirated, and the established spheroids taken into a H2/Pd-catalyst anaerobic chamber. Spheroids were washed three times with anoxia pre-equilibrated medium and left to settle for 1 h in a humidified 37°C incubator. Spheroids were removed from the anaerobic chamber after a 4 h drug exposure and washed three times with fresh culture medium. The growth of representative spheroids was monitored for 10 days using a published method of image analysis for volume determination ([Mao et al., 2018]). The remainder were enzymatically dissociated and plated at serial dilutions in 6-well plates containing 2 µM puromycin or 1 mg/ml geneticin for positive selection of POR-R and PORko-G cells, respectively. Colonies were visualized after 10 days of drug-free proliferation by staining with methylene blue (2 g/L in 50% aqueous ethanol) for 30 min. The number of colonies with at least 50 cells was manually counted to determine the plating efficiency. The surviving fraction was determined as the ratio of the plating efficiency of treated cells to that of the controls.

[2] = test system: PORko-G cell line (POR-knockout HCT-116); assay: Anti-proliferative IC50 assay (SRB); type: cell-based, human; settings: for IC50: Homo sapiens, HCT-116, 4 h exposure
From the text: The HCT-116 cell line was purchased from the American Type Culture Collection (Manassas, VA). A POR-overexpressing clone (POR-R) was generated by transfecting the parental cell line with a pBRP expression vector encoding an N-terminal truncated soluble version of the human POR gene ([Foehrenbacher et al., 2013a]; [Guise et al., 2020]). Ectopic expression is driven by the human cytomegalovirus (CMV) major immediate-early promoter. Downstream of POR is a human elongation factor-1 alpha (EF-1 alpha) promoter, which drives expression of mRuby and the puromycin resistance gene pac (puromycin N-acetyltransferase). A POR-null clone (PORG-ko) was generated as previously described ([Su et al., 2013]). POR-null clones were then transfected with a pEGFP-N1 plasmid encoding enhanced green fluorescent protein (EGFP) and geneticin resistance to permit identification upon co-culture ([Hong et al., 2018b]). Cell lines were maintained by weekly subculture in T-flasks containing alpha minimal essential medium (αMEM) with 5% foetal bovine serum (FBS) for a maximum of 24 passages or 90 days (whichever came first). The culture medium was further supplemented with 1 mg/ml geneticin or 2 µM puromycin for the routine maintenance of the POR-null and POR-overexpressing clones respectively. All cultures were re-established from STR-authenticated, mycoplasma negative frozen stocks.
Cells (700–1,000 per well) were seeded with 100 µl culture medium into 96-well plates and left to attach for 2 h in a humidified 37°C incubator. Compounds were prepared in culture medium and serially diluted (1:3) in the well volume. Plates were returned to a humidified 37°C incubator for the duration of the drug exposure (4 h). Aerobic experiments were performed under standard tissue culture conditions (21% O2), and the anoxic experiments were performed in parallel in a 5% H2/Pd catalyst anaerobic chamber (Shellab Bactron, Sheldon manufacturing Inc., Cornelius, OR) using pre-equilibrated media and plasticware. All anoxia experiments were conducted using a catalyst-scrubbed anaerobic chamber, unless otherwise specified, with gas oxygen measurements of <1 ppm O2. Cells were then washed three times and left to grow for 96 h before cell density determination using a sulforhodamine B (SRB) assay ([Vichai and Kirtikara, 2006]). To this end, the cells were fixed by layering 50 µl of trichloroacetic acid (40% w/v in MilliQ water) on top of the culture media (150 µl) in each well for 1 h at 4°C. Plates were rinsed under running tap water and stained with 50 µl of SRB (0.4% w/v in MilliQ water containing 1% v/v acetic acid) for 30 min at room temperature. Plates were rapidly destained by rinsing three times in tap water containing 1% (v/v) acetic acid. The stain was solubilized by adding 100 µl of 10 mM unbuffered Tris base to each well with gentle rocking for 1 h. Plates were read on a Biotek ELx808 Absorbance Microplate Reader at 490 nm using KC4 software. The IC50 value (concentration required to reduce staining to 50% of the untreated control on the same plate) for each compound was determined by interpolation using a 4-parameter logistic regression model.

[3] = test system: POR-overexpressing HCT-116 cells (POR-R) monolayer; assay: Cellular uptake studies / cellular PK model; type: in vitro ADME, human; settings: aerobic 21% O2, Co range 0.3–30 µM
HCT-116 WT cell line = assay: Monolayer clonogenic assay; type: cell-based; settings: Homo sapiens; HCT-116 WT monolayer; 4 h exposure, <1 ppm O2; read-out: Clonogenic IC50 under anoxia
Procedure: Cells (4.8 x 10^5 cells) were seeded with 2 ml culture medium into 6-well plates and left to attach for 2 h in a humidified 37°C incubator. Compounds were then prepared in culture medium and added in a 500 µl volume to each well. Plates were returned to a humidified 37°C incubator for the duration of the drug exposure (4 h). Aerobic and anoxic experiments were performed as described above. Plates were then removed from the anaerobic chamber and processed alongside the aerobic cultures. Cells were detached from monolayer by trypsinisation and plated at serial dilutions in 6-well plates. Cells were left to grow in a standard 37°C incubator for 10 days until the controls formed discrete colonies comprised of at least 50 cells. Colonies were visualized by staining with methylene blue (2 g/L in 50% aqueous ethanol) for 30 min. The number of colonies with at least 50 cells was manually counted to determine the plating efficiency. The surviving fraction was determined as the ratio of plating efficiency of treated cells to that of the controls.

[4] = test system: POR-overexpressing HCT-116 cells (POR-R) monolayer; settings: cited from earlier work
[5] = Table 1 footnote d: assumed equivalent to measured metabolites or derived from published estimates for PR-104A metabolites, ref Foehrenbacher et al., 2013a, Hong et al., 2018b
[6] = Table S3, fixed to fitted values for downstream metabolites of PR-104 ('metabolite 2'), ref (2,3)

SMILES	IC50 ([1]; 0% activator cells) [µM]	IC50 ([1]; 10% activator cells) [µM]	IC50 ([1]; 50% activator cells) [µM]	IC50 ([1]; 100% activator cells) [µM]	IC50 ([2]; PORko-G, anoxic <1 ppm O2, 96 h drug-free proliferation, read-out: Anoxic IC50 (anti-proliferative)) [µM]	IC50 ([2]; PORko-G, normoxic 21% O2, 96 h drug-free proliferation, read-out: Aerobic IC50 (anti-proliferative)) [µM]	Fold lower IC50 under anoxic vs aerobic conditions ([2]; PORko-G, anti-proliferative assay) [fold]	Differential in anoxic sensitivity between PORko-G and POR-R cell lines ([2]; anti-proliferative assay, anoxia) [fold]	Steady-state Ci/Ce ratio (cell uptake) [3] [fold]	IC50 (HCT-116 WT cell line) [µM]	k in: rate constant for transfer from the extracellular to intracellular volume [4, 5]	k out: rate constant for transfer from the intracellular to extracellular volume [4, 5]	T1/2: time required to reduce the concentration to half its initial value [4, 6] [min]	kin: rate of transfer from the extracellular to the intracellular compartment [4, 6] [min⁻¹]	kout: rate of transfer from the intracellular to the extracellular compartment [4, 6] [min⁻¹]
CCN1CCN(C(=O)c2cc(N(CCBr)CCOS(C)(=O)=O)c(S(C)(=O)=O)cc2[N+](=O)[O-])CC1 [CP-506, 2-[(2-bromoethyl)-5-[(4-ethyl-1-piperazinyl)carbonyl]-2-(methylsulfonyl)-4-nitroanilino]ethyl methanesulfonate]	> 40	13.6	5.6	2.4	33.1 ± 5.6	240 ± 26	7.3	13	50	7.4 ± 0.5	–	–	–	–	–
CCN1CCN(C(=O)c2cc(N(CCCl)CCCl)c(S(C)(=O)=O)cc2N)CC1 [CP-506M-Cl2, (2-Amino-5-(bis(2-chloroethyl)amino)-4-(methylsulfonyl)phenyl)(4-ethylpiperazin-1-yl)methanone]	–	–	–	–	–	–	–	–	–	–	0.9 ^d min^−1	0.3 ^d min^−1	6.6	0.9	0.3
